From publication PMC11078746 (Nature, 2024)
Several values for one entry are separate records, joined by “and”; a condition that tells them apart may be missing. Identical values can stand only once.

Test system: SW48 xenografts
Experiment: SW48 cell-derived xenograft efficacy, HRO761 orally once daily
Format: in vivo, mouse
Method: All animal studies were conducted in accordance with ethics and procedures covered by permit BS-2275 and BS-1975 issued by the Kantonales Veterinäramt Basel-Stadt and in strict adherence to guidelines of the Eidgenössisches Tierschutzgesetz and the Eidgenössische Tierschutzverordnung, Switzerland. All animal studies were approved by the internal ethics committee. All animals had access to food and water ad libitum and were identified with transponders. They were housed in a specific-pathogen-free facility in IVC racks under a 12 h–12 h light–dark cycle. To establish cell-line-derived xenograft models, 6–7-week-old female athymic nude (Crl:NU(NCr)-Foxn1^nu) or SCID-BEIGE (CB17.Cg-PrkdcscidLystbg-J/Crl) mice from Charles River were engrafted subcutaneously with 5 million tumour cells in HBSS (H6648, Sigma-Aldrich). For SNU-407, Lovo, IM95, RL95.2, Ishikawa and IGROV-1, the cells were concentrated in 50% Matrigel (354234, Corning). Patient-derived xenografts were induced and expanded by transplantation as previously described. […] For the efficacy experiment, mice were randomized into groups (n = 5–6) for a mean tumour size of 100–150 mm^3. […] Blood samples were collected on day 7 and 91. […] Tumour responses are reported with the measures of tumour volumes from the treatment start. […] Animals were randomized (n = 3) and tumour samples were collected at 0, 1, 4, 8 and 24 h on the first day and then collected 4 h after the last treatment on day 3, 8, 10, 14 (including a 24 h timepoint), 17 and 21. Tumours were excised, weighed, either frozen in liquid nitrogen and cryogenic dry pulverized with the CryoPrep system (model CP-02, Covaris) or processed to FFPE after fixation. […] On day 12, blood samples were collected for PK analysis. On the last day (3 h after the last treatment), tumours were excised, weighed, frozen in liquid nitrogen and cryogenic dry pulverized for PD analysis.

CCc1c(N2CCN(C(=O)c3ncnc(C)c3O)CC2)c(=O)n2nc(C3=CCOCC3)nc2n1CC(=O)Nc1ccc(C(F)(F)F)cc1Cl [HRO761]
max Reg (%) or max T/C (%) (10 mg/kg): 94.00% | tumour response (20 mg per kg, once daily oral): tumour stasis | max Reg (%) or max T/C (%) (20 mg/kg): 6.00% | max Reg (%) or max T/C (%) (30 mg/kg): -69.00% | max Reg (%) or max T/C (%) (40 mg/kg): -75.00% | max Reg (%) or max T/C (%) (60 mg/kg): -85.00% | max Reg (%) or max T/C (%) (120 mg/kg): -89.00% | Mean TVol (HRO761 20mg/kg, day 0 post 1st dose): 148.57 mm3 | Mean TVol (HRO761 20mg/kg, day 3 post 1st dose): 172.19 mm3 | Mean TVol (HRO761 20mg/kg, day 7 post 1st dose): 214.06 mm3 | Mean TVol (HRO761 20mg/kg, day 10 post 1st dose): 199.01 mm3 | Mean TVol (HRO761 20mg/kg, day 14 post 1st dose): 193.54 mm3 | TVol, individual mouse (HRO761 20mg/kg, day 14 post 1st dose, 20 mg/kg): 183.48 mm3 and 119.53 mm3 and 120.69 mm3 and 296.11 mm3 and 247.89 mm3 | Mean TVol (HRO761 20mg/kg, day 17 post 1st dose): 171.07 mm3 | TVol, individual mouse (HRO761 20mg/kg, day 17 post 1st dose, 20 mg/kg): 183.94 mm3 and 118.26 mm3 and 128.1 mm3 and 182.42 mm3 and 242.62 mm3 | Mean TVol (HRO761 20mg/kg, day 21 post 1st dose): 210.51 mm3 | TVol, individual mouse (HRO761 20mg/kg, day 21 post 1st dose, 20 mg/kg): 237.44 mm3 and 188.88 mm3 and 167.52 mm3 and 218.78 mm3 and 239.95 mm3 | Mean TVol (HRO761 20mg/kg, day 24 post 1st dose): 217.13 mm3 | TVol, individual mouse (HRO761 20mg/kg, day 24 post 1st dose, 20 mg/kg): 213.9 mm3 and 149.74 mm3 and 186.94 mm3 and 199.91 mm3 and 335.14 mm3 | Mean TVol (HRO761 20mg/kg, day 28 post 1st dose): 270.81 mm3 | TVol, individual mouse (HRO761 20mg/kg, day 28 post 1st dose, 20 mg/kg): 244.97 mm3 and 189.99 mm3 and 254.46 mm3 and 269.33 mm3 and 395.3 mm3 | Mean TVol (HRO761 20mg/kg, day 31 post 1st dose): 317.23 mm3 | Mean TVol (HRO761 20mg/kg, day 35 post 1st dose): 380.57 mm3 | Mean TVol (HRO761 20mg/kg, day 38 post 1st dose): 438.75 mm3 | Mean TVol (HRO761 20mg/kg, day 42 post 1st dose): 626.99 mm3 | Mean TVol (HRO761 20mg/kg, day 45 post 1st dose): 658.99 mm3 | Mean TVol (HRO761 40mg/kg, day 0 post 1st dose): 148.59 mm3 | Mean TVol (HRO761 40mg/kg, day 3 post 1st dose): 162.25 mm3 | Mean TVol (HRO761 40mg/kg, day 7 post 1st dose): 181.10 mm3 | Mean TVol (HRO761 40mg/kg, day 10 post 1st dose): 146.66 mm3 | Mean TVol (HRO761 40mg/kg, day 14 post 1st dose): 133.58 mm3 | TVol, individual mouse (HRO761 40mg/kg, day 14 post 1st dose, 40 mg/kg): 137.47 mm3 and 92.79 mm3 and 146.32 mm3 and 135.46 mm3 and 155.86 mm3 | Mean TVol (HRO761 40mg/kg, day 17 post 1st dose): 95.84 mm3 | TVol, individual mouse (HRO761 40mg/kg, day 17 post 1st dose, 40 mg/kg): 84.05 mm3 and 68.24 mm3 and 117.68 mm3 and 91.67 mm3 and 117.57 mm3 | Mean TVol (HRO761 40mg/kg, day 21 post 1st dose): 84.88 mm3 | TVol, individual mouse (HRO761 40mg/kg, day 21 post 1st dose, 40 mg/kg): 65.27 mm3 and 62.26 mm3 and 114.98 mm3 and 87.79 mm3 and 94.1 mm3 | Mean TVol (HRO761 40mg/kg, day 24 post 1st dose): 52.61 mm3 | TVol, individual mouse (HRO761 40mg/kg, day 24 post 1st dose, 40 mg/kg): 40.05 mm3 and 34.46 mm3 and 63.81 mm3 and 55.22 mm3 and 69.51 mm3 | Mean TVol (HRO761 40mg/kg, day 28 post 1st dose): 44.44 mm3 | TVol, individual mouse (HRO761 40mg/kg, day 28 post 1st dose, 40 mg/kg): 41.72 mm3 and 27.23 mm3 and 46.41 mm3 and 45.86 mm3 and 60.97 mm3 | Mean TVol (HRO761 40mg/kg, day 31 post 1st dose): 37.24 mm3 | Mean TVol (HRO761 40mg/kg, day 35 post 1st dose): 32.88 mm3 | Mean TVol (HRO761 40mg/kg, day 38 post 1st dose): 33.30 mm3 | Mean TVol (HRO761 40mg/kg, day 42 post 1st dose): 36.90 mm3 | Mean TVol (HRO761 40mg/kg, day 45 post 1st dose): 34.79 mm3 | Mean TVol (HRO761 40mg/kg, day 49 post 1st dose): 37.27 mm3 | Mean TVol (HRO761 40mg/kg, day 52 post 1st dose): 35.78 mm3 | Mean TVol (HRO761 40mg/kg, day 56 post 1st dose): 46.42 mm3 | Mean TVol (HRO761 40mg/kg, day 59 post 1st dose): 55.91 mm3 | Mean TVol (HRO761 40mg/kg, day 63 post 1st dose): 77.49 mm3 | Mean TVol (HRO761 40mg/kg, day 66 post 1st dose): 84.81 mm3 | Mean TVol (HRO761 40mg/kg, day 70 post 1st dose): 105.06 mm3 | Mean TVol (HRO761 40mg/kg, day 73 post 1st dose): 118.43 mm3 | Mean TVol (HRO761 40mg/kg, day 76 post 1st dose): 139.13 mm3 | Mean TVol (HRO761 40mg/kg, day 79 post 1st dose): 184.71 mm3 | Mean TVol (HRO761 40mg/kg, day 83 post 1st dose): 215.37 mm3 | Mean TVol (HRO761 40mg/kg, day 86 post 1st dose): 261.40 mm3 | Mean TVol (HRO761 40mg/kg, day 90 post 1st dose): 329.03 mm3 | Mean TVol (HRO761 40mg/kg, day 92 post 1st dose): 334.15 mm3 | Mean TVol (HRO761 60mg/kg, day 0 post 1st dose): 148.59 mm3 | Mean TVol (HRO761 60mg/kg, day 3 post 1st dose): 184.38 mm3 | Mean TVol (HRO761 60mg/kg, day 7 post 1st dose): 168.35 mm3 | Mean TVol (HRO761 60mg/kg, day 10 post 1st dose): 139.22 mm3 | Mean TVol (HRO761 60mg/kg, day 14 post 1st dose): 143.74 mm3
